From US20240336565A1, “SOLID FORMS OF OSANETANT” (Acer Therapeutics, Inc., priority 2021, published 2024)
Blank lines part the entries; values can stand above or below the compound they belong to.

What was measured:
[1] = Long term stability: base (2M NaOH) at ambient temperature; type: physicochemical; details: for Control Purity: 2M NaOH ambient study; for T = 1 month Purity / T = 1 day Purity / T = 2 day Purity / T = 4 day Purity / T = 7 day Purity / T = 14 day Purity: 2M NaOH, ambient, dark; for T = 2 day Purity: 2 days; for T = 4 day Purity: 4 days; for T = 7 day Purity: 7 days; for T = 14 day Purity: 14 days
Procedure: (§1) Osanetant p-toluenesulfonic acid Form 1 and osanetant benzenesulfonic acid Form 1 were tested for long-term stability across a number of different conditions, as detailed below.
(§2) Base at Ambient Temperature—Osanetant p-toluenesulfonic acid Form 1 and osanetant benzenesulfonic acid Form 1 were prepared at an osanetant content 10 times the normal working concentration then added to HPLC vials containing 2M NaOH and stored in the dark at ambient laboratory conditions. Samples were diluted to 2 mg/mL for analysis and were taken after T=1, 2, 4, 7, and 14 days storage. […] The purity of the resulting material is described in Table 44: […]

[2] = Long term stability: oxidation (6% H2O2) at 60° C.; type: physicochemical; details: for Control Purity: 6% H2O2 60° C. study; for T = 1 month Purity / T = 1 day Purity / T = 2 day Purity / T = 4 day Purity / T = 7 day Purity / T = 14 day Purity: 6% H2O2, 60° C., dark; for T = 2 day Purity: 2 days; for T = 4 day Purity: 4 days; for T = 7 day Purity: 7 days; for T = 14 day Purity: 14 days
Procedure: as §1
as §2, with “Oxidation” for “Base”, “60° C.—Osanetant” for “Ambient Temperature—Osanetant”, “6% H2O2” for “2M NaOH”, “a darkened oven” for “the dark”, “60° C.” for “ambient laboratory conditions.”, “47:” for “44:”

[3] = Long term stability: oxidation (6% H2O2) at ambient temperature; type: physicochemical; details: for T = 1 month Purity / T = 1 day Purity / T = 2 day Purity / T = 4 day Purity / T = 7 day Purity / T = 14 day Purity: 6% H2O2, ambient, dark; for T = 2 day Purity: 2 days; for T = 4 day Purity: 4 days; for T = 7 day Purity: 7 days; for T = 14 day Purity: 14 days; for Control Purity: 6% H2O2 ambient study
Procedure: as §1
as §2, with “Oxidation” for “Base”, “Temperature-Osanetant” for “Temperature—Osanetant”, “6% H2O2” for “2M NaOH”, “46:” for “44:”

[4] = Long term stability: acid stability (2M HCl) at ambient temperature; type: physicochemical; details: for Control Purity: 2M HCl ambient study; for T = 1 month Purity / T = 1 day Purity / T = 2 day Purity / T = 4 day Purity / T = 7 day Purity / T = 14 day Purity: 2M HCl, ambient, dark; for T = 2 day Purity: 2 days; for T = 4 day Purity: 4 days; for T = 7 day Purity: 7 days; for T = 14 day Purity: 14 days
Procedure: as §1
as §2, with “Acid Stability” for “Base”, “Temperature-Osanetant” for “Temperature—Osanetant”, “HCl” for “NaOH”, “42:” for “44:”

[5] = Long term stability: base (2M NaOH) at 60° C.; type: physicochemical; details: for Control Purity: 2M NaOH 60° C. study; for T = 4 day Purity: 4 days; for T = 7 day Purity: 7 days; for T = 14 day Purity: 14 days
Procedure: as §1
as §2, with “60° C.—Osanetant” for “Ambient Temperature—Osanetant”, “a darkened oven” for “the dark”, “60° C.” for “ambient laboratory conditions.”, “45:” for “44:”

[6] = Long term stability: acid stability (2M HCl) at 60° C.; type: physicochemical; details: for Control Purity: 2M HCl 60° C. study; for T = 1 day Purity / T = 2 day Purity / T = 4 day Purity: 2M HCl, 60° C., dark; for T = 2 day Purity: 2 days; for T = 4 day Purity: 4 days
Procedure: as §1
Acid Stability at 60° C.—Osanetant p-toluenesulfonic acid Form 1 and osanetant benzenesulfonic acid Form 1 were prepared at an osanetant content 10 times the normal working concentration then added to HPLC vials containing 2M HCl and stored in a darkened oven at 60° C. Samples were diluted to 2 mg/mL for analysis and were taken after T=1, 2, and 4 days storage.

[7] = Long term stability: thermal stability of solids at 60° C.; type: physicochemical; details: for T = 1 month Purity / T = 1 day Purity / T = 2 day Purity / T = 4 day Purity / T = 7 day Purity / T = 14 day Purity: solid at 60° C., dark; for T = 2 day Purity: 2 days; for T = 4 day Purity: 4 days; for T = 7 day Purity: 7 days; for T = 14 day Purity: 14 days; for Control Purity: solid, Purity = 100-total other substances
Procedure: as §1
Thermal stability of solids at 60° C.—Osanetant p-toluenesulfonic acid Form 1 and osanetant benzenesulfonic acid Form 1 were stored in a darkened oven at 60° C. in glass vials. Samples were taken after T=1, 2, 4, 7, and 14 days storage. […] The purity of the resulting material is described in Table 41: […]

[8] = Disproportionation study (stirring in water, XRPD, pH of liquor); type: physicochemical; details: slurry in water at 25° C., 24 h
Procedure: After 24 h total, a white slurry was observed and was isolated by centrifugation. The solids were analyzed by XRPD. The pH of the filtered liquor was measured at 5.63. […] After 24 h total, a white slurry was observed and was isolated by centrifugation. The solids were analyzed by XRPD. The pH of the filtered liquor was measured (pH=5.09).

[9] = Thermodynamic solubility in water and pH buffers; details: 24 h Solubility at 37° C.
[10] = Comparative studies: 7-day stability; type: physicochemical; details: 7 Day Stability
Procedure: Osanetant p-toluenesulfonic acid Form 1, osanetant benzene sulfonic acid Form 3, osanetant naphthalene-2-sulfonic acid Form 3, and osanetant phosphoric acid Form 7 were compared. Osanetant phosphoric acid Form 7 was obtained when preparation of osanetant phosphoric acid Form 4 was repeated and found to be not reproducible, and Form 7 was determined to be a mixture of hydrates).
Thus, osanetant benzene sulfonic acid salt Form 1 and osanetant p-toluene sulfonic acid salt Form 1 were identified as advantageous salts.

Compound: CC(=O)N(C)C1(c2ccccc2)CCN(CCC[C@]2(c3ccc(Cl)c(Cl)c3)CCCN(C(=O)c3ccccc3)C2)CC1.Cc1ccc(S(=O)(=O)O)cc1 [p-toluenesulfonic acid Form 1]
- Control Purity [1]: 99.8
- T = 1 month Purity [1]: 99.7
- T = 1 day Purity [1]: 99.8
- T = 2 day Purity [1]: 99.8
- T = 4 day Purity [1]: 99.8
- T = 7 day Purity [1]: 99.8
- T = 14 day Purity [1]: 99.8
- Control Purity [2]: 99.8
- T = 1 month Purity [2]: 65.5
- T = 1 day Purity [2]: 99.3
- T = 2 day Purity [2]: 96.6
- T = 4 day Purity [2]: 97.4
- T = 7 day Purity [2]: 95.2
- T = 14 day Purity [2]: 92.4
- T = 1 month Purity [3]: 99.7
- T = 1 day Purity [3]: 99.8
- T = 2 day Purity [3]: 99.8
- T = 4 day Purity [3]: 99.8
- T = 7 day Purity [3]: 99.8
- T = 14 day Purity [3]: 99.8
- Control Purity [3]: 99.8
- Control Purity [4]: 99.8
- T = 1 month Purity [4]: 98.0
- T = 1 day Purity [4]: 99.8
- T = 2 day Purity [4]: 99.8
- T = 4 day Purity [4]: 99.9
- T = 7 day Purity [4]: 99.6
- T = 14 day Purity [4]: 99.0
- Control Purity [5]: 99.8
- T = 1 month Purity ([5]; 2M NaOH, 60° C., dark): 94.0
- T = 1 day Purity ([5]; 2M NaOH, 60° C., dark): 99.6
- T = 2 day Purity ([5]; 2M NaOH, 60° C., dark, 2 days): 99.2
- T = 4 day Purity ([5]; 2M NaOH, 60° C., dark): 98.4
- T = 7 day Purity ([5]; 2M NaOH, 60° C., dark): 97.1
- T = 14 day Purity ([5]; 2M NaOH, 60° C., dark): 94.7
- Control Purity [6]: 99.8
- T = 1 day Purity [6]: 94.8
- T = 2 day Purity [6]: 89.0
- T = 4 day Purity [6]: 80.5
- T = 1 month Purity [7]: 99.5
- T = 1 day Purity [7]: 99.7
- T = 2 day Purity [7]: 99.7
- T = 4 day Purity [7]: 99.7
- T = 7 day Purity [7]: 99.6
- T = 14 day Purity [7]: 99.7
- Control Purity [7]: 99.8

- Control Purity [1]: 99.9
- T = 1 month Purity [1]: 99.9
- T = 1 day Purity [1]: 99.9
- T = 2 day Purity [1]: 99.9
- T = 4 day Purity [1]: 99.9
- T = 7 day Purity [1]: 99.9
- T = 14 day Purity [1]: 100.0
- Control Purity [2]: 99.9
- T = 1 month Purity [2]: 77.8
- T = 1 day Purity [2]: 91.9
- T = 2 day Purity [2]: 97.2
- T = 4 day Purity [2]: 94.8
- T = 7 day Purity [2]: 93.1
- T = 14 day Purity [2]: 76.6
- T = 1 month Purity [3]: 99.5
- T = 1 day Purity [3]: 99.9
- T = 2 day Purity [3]: 99.9
- T = 4 day Purity [3]: 99.9
- T = 7 day Purity [3]: 99.8
- T = 14 day Purity [3]: 99.8
- Control Purity [3]: 99.9
- Control Purity [4]: 99.9
- T = 1 month Purity [4]: 98.5
- T = 1 day Purity [4]: 100.0
- T = 2 day Purity [4]: 100.0
- T = 4 day Purity [4]: 99.9
- T = 7 day Purity [4]: 99.5
- T = 14 day Purity [4]: 99.3
- Control Purity [5]: 99.9
- T = 1 month Purity ([5]; 2M NaOH, 60° C., dark): 95.8
- T = 1 day Purity ([5]; 2M NaOH, 60° C., dark): 99.7
- T = 4 day Purity ([5]; 2M NaOH, 60° C., dark): 98.5
- T = 7 day Purity ([5]; 2M NaOH, 60° C., dark): 97.3
- T = 14 day Purity ([5]; 2M NaOH, 60° C., dark): 95.5
- Control Purity [6]: 99.9
- T = 1 day Purity [6]: 94.7
- T = 2 day Purity [6]: 89.2
- T = 4 day Purity [6]: 81.0
- T = 1 month Purity [7]: 100.0
- T = 1 day Purity [7]: 99.9
- T = 2 day Purity [7]: 99.9
- T = 4 day Purity [7]: 99.9
- T = 7 day Purity [7]: 99.9
- T = 14 day Purity [7]: 100.0
- Control Purity [7]: 99.9
Compound: CC(=O)N(C)C1(c2ccccc2)CCN(CCCC2(c3ccc(Cl)c(Cl)c3)CCCN(C(=O)c3ccccc3)C2)CC1.O=S(=O)(O)c1ccccc1 (centres unmarked) [benzenesulfonic acid Form 1]

Compound: CC(=O)N(C)C1(c2ccccc2)CCN(CCC[C@]2(c3ccc(Cl)c(Cl)c3)CCCN(C(=O)c3ccccc3)C2)CC1.O=S(=O)(O)c1ccccc1 [Besylate Form 3]
- Liquor pH [8]: 5.09
- Concentration ([9]; pH 1.2): 216.3 µg/mL
- Concentration ([9]; pH 4.5): 232.4 µg/mL
- Concentration ([9]; pH 6.8): 363.7 µg/mL
- HPLC Impurity Content ([10]; 40° C./75% RH): 0.06 % w/w
- HPLC Impurity Content ([10]; 80° C.): 0.24 % w/w
- HPLC Impurity Content ([10]; Ambient Light): 0.05 % w/w
